Test results: patent US20250262201A1, “COMPOUNDS AND METHODS USEFUL FOR STABILIZING PHENYLALANINE HYDROXYLASE MUTATIONS” (Agios Pharmaceuticals, Inc., priority 2022, published 2025)

Biological target: T1, human PAH with the R408W mutation (Homo sapiens, UniProt P00439, R408W)
T1 construct: expressed in transfected cells
T1 sequence (P00439 1-452 R408W): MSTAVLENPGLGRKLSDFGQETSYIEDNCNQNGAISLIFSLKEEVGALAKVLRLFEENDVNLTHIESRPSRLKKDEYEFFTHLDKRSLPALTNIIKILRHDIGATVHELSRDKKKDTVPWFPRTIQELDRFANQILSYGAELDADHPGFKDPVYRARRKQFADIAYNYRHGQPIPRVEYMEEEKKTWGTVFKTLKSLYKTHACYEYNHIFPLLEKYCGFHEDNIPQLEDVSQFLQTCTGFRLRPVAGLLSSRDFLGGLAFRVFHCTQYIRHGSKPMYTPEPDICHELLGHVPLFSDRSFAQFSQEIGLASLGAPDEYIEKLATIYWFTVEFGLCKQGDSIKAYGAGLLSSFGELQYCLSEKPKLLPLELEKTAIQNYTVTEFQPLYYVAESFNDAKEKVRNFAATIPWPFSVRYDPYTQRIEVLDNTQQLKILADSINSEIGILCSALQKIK
Test: Cell Based Phenylalanine Flux Assay
Details: A375 cells expressing human R408W PAH; 24 hrs compound incubation; 13C-Tyrosine by LC-MS; average where tested multiple times; read-out: AC50

AC50	SMILES
0.5 to 1 µM	Cc1nnc(CCC(=O)N2CCc3[nH]cnc3[C@H]2c2cc3ccccc3cn2)o1 [Example 345, (R)-1-(4-(isoquinolin-3-yl)-6,7-dihydro-1H-imidazo[4,5-c]pyridin-5(4H)-yl)-3-(5-methyl-1,3,4-oxadiazol-2-yl)propan-1-one]
1 to 5 µM	O=C(CCc1nnc(C(F)F)o1)N1CCc2[nH]cnc2[C@H]1c1cc2ccccc2cn1 [Example 346, (R)-3-(5-(difluoromethyl)-1,3,4-oxadiazol-2-yl)-1-(4-(isoquinolin-3-yl)-6,7-dihydro-1H-imidazo[4,5-c]pyridin-5(4H)-yl)propan-1-one]
0.5 to 1 µM	CC(C)(O)c1nnc(C(=O)N2CCc3[nH]cnc3[C@H]2c2cc3ccccc3cn2)o1 [Example 347, (R)-(5-(2-hydroxypropan-2-yl)-1,3,4-oxadiazol-2-yl)(4-(isoquinolin-3-yl)-6,7-dihydro-1H-imidazo[4,5-c]pyridin-5(4H)-yl)methanone]
< 0.5 µM	O=C(c1ocnc1-c1ccccc1)N1CCc2[nH]cnc2[C@H]1c1cc2ccccc2cn1 [Example 348, (R)-(4-(isoquinolin-3-yl)-6,7-dihydro-1H-imidazo[4,5-c]pyridin-5(4H)-yl)(4-phenyloxazol-5-yl)methanone]
< 0.5 µM	O=C(Cc1nncs1)N1CCc2[nH]cnc2[C@H]1c1cc2ccccc2cn1 [Example 349, (R)-1-(4-(isoquinolin-3-yl)-6,7-dihydro-1H-imidazo[4,5-c]pyridin-5(4H)-yl)-2-(1,3,4-thiadiazol-2-yl)ethanone]
< 0.5 µM	O=C(c1nncs1)N1CCc2[nH]cnc2[C@H]1c1cc2ccccc2cn1 [Example 350, (R)-(4-(isoquinolin-3-yl)-6,7-dihydro-1H-imidazo[4,5-c]pyridin-5(4H)-yl)(1,3,4-thiadiazol-2-yl)methanone]
0.5 to 1 µM	Cc1nnc(CC(=O)N2CCc3[nH]cnc3[C@H]2c2cc3ccccc3cn2)s1 [Example 351, (R)-1-(4-(isoquinolin-3-yl)-6,7-dihydro-1H-imidazo[4,5-c]pyridin-5(4H)-yl)-2-(5-methyl-1,3,4-thiadiazol-2-yl)ethanone]
< 0.5 µM	O=C(c1cnn2cc(Br)ccc12)N1CCc2[nH]cnc2[C@H]1c1cc2ccccc2cn1 [Example 352, (R)-(6-bromopyrazolo[1,5-a]pyridin-3-yl)(4-(isoquinolin-3-yl)-6,7-dihydro-1H-imidazo[4,5-c]pyridin-5(4H)-yl)methanone]
< 0.5 µM	O=C(c1ncn2ccccc12)N1CCc2[nH]cnc2[C@H]1c1cc2ccccc2cn1 [Example 353, (R)-imidazo[1,5-a]pyridin-1-yl(4-(isoquinolin-3-yl)-6,7-dihydro-1H-imidazo[4,5-c]pyridin-5(4H)-yl)methanone]

Second part, the compound before the results:

SMILES	AC50
Cn1cc(-c2nnc(C(=O)N3CCc4[nH]cnc4[C@@H]3c3cc4ccccc4cn3)o2)cn1 [Example 323, (S)-(4-(isoquinolin-3-yl)-6,7-dihydro-1H-imidazo[4,5-c]pyridin-5(4H)-yl)(5-(1-methyl-1H-pyrazol-4-yl)-1,3,4-oxadiazol-2-yl)methanone]	> 5 µM
O=C(c1nnc(-c2ccccn2)o1)N1CCc2[nH]cnc2[C@H]1c1cc2ccccc2cn1 [Example 324, (R)-(4-(isoquinolin-3-yl)-6,7-dihydro-1H-imidazo[4,5-c]pyridin-5(4H)-yl)(5-(pyridin-2-yl)-1,3,4-oxadiazol-2-yl)methanone]	< 0.5 µM
O=C(c1nnc(-c2ccccn2)o1)N1CCc2[nH]cnc2[C@@H]1c1cc2ccccc2cn1 [Example 325, (S)-(4-(isoquinolin-3-yl)-6,7-dihydro-1H-imidazo[4,5-c]pyridin-5(4H)-yl)(5-(pyridin-2-yl)-1,3,4-oxadiazol-2-yl)methanone]	> 5 µM
O=C(c1nnc(C2CC2)o1)N1CCc2[nH]cnc2[C@H]1c1cc2ccccc2cn1 [Example 326, (R)-(5-cyclopropyl-1,3,4-oxadiazol-2-yl)(4-(isoquinolin-3-yl)-6,7-dihydro-1H-imidazo[4,5-c]pyridin-5(4H)-yl)methanone]	< 0.5 µM
CC(C)(O)c1ncc(C(=O)N2CCc3[nH]cnc3[C@H]2c2cc3ccccc3cn2)s1 [Example 328, (R)-(2-(2-hydroxypropan-2-yl)thiazol-5-yl)(4-(isoquinolin-3-yl)-6,7-dihydro-1H-imidazo[4,5-c]pyridin-5(4H)-yl)methanone]	0.5 to 1 µM
CC(C)(O)c1ncc(C(=O)N2CCc3[nH]cnc3[C@@H]2c2cc3ccccc3cn2)s1 [Example 329, (S)-(2-(2-hydroxypropan-2-yl)thiazol-5-yl)(4-(isoquinolin-3-yl)-6,7-dihydro-1H-imidazo[4,5-c]pyridin-5(4H)-yl)methanone]	> 5 µM
CN(C)Cc1ccc2c(C(=O)N3CCc4[nH]cnc4[C@H]3c3cc4ccccc4cn3)cnn2c1 [Example 330, (R)-(6-((dimethylamino)methyl)pyrazolo[1,5-a]pyridin-3-yl)(4-(isoquinolin-3-yl)-6,7-dihydro-1H-imidazo[4,5-c]pyridin-5(4H)-yl)methanone]	< 0.5 µM
CN(C)Cc1ccc2c(C(=O)N3CCc4[nH]cnc4[C@@H]3c3cc4ccccc4cn3)cnn2c1 [Example 331, (S)-(6-((dimethylamino)methyl)pyrazolo[1,5-a]pyridin-3-yl)(4-(isoquinolin-3-yl)-6,7-dihydro-1H-imidazo[4,5-c]pyridin-5(4H)-yl)methanone]	> 5 µM
CC(C)(F)c1ncc(C(=O)N2CCc3[nH]cnc3[C@H]2c2cc3ccccc3cn2)s1 [Example 332, (R)-(2-(2-fluoropropan-2-yl)thiazol-5-yl)(4-(isoquinolin-3-yl)-6,7-dihydro-1H-imidazo[4,5-c]pyridin-5(4H)-yl)methanone]	< 0.5 µM
CC(C)(F)c1ncc(C(=O)N2CCc3[nH]cnc3[C@@H]2c2cc3ccccc3cn2)s1 [Example 333, (S)-(2-(2-fluoropropan-2-yl)thiazol-5-yl)(4-(isoquinolin-3-yl)-6,7-dihydro-1H-imidazo[4,5-c]pyridin-5(4H)-yl)methanone]	1 to 5 µM
O=C(c1nnc(-c2c(F)cccc2F)o1)N1CCc2[nH]cnc2[C@H]1c1cc2ccccc2cn1 [Example 334, (R)-(5-(2,6-difluorophenyl)-1,3,4-oxadiazol-2-yl)(4-(isoquinolin-3-yl)-6,7-dihydro-1H-imidazo[4,5-c]pyridin-5(4H)-yl)methanone]	< 0.5 µM
O=C(c1nnc(-c2c(F)cccc2F)o1)N1CCc2[nH]cnc2[C@@H]1c1cc2ccccc2cn1 [Example 335, (S)-(5-(2,6-difluorophenyl)-1,3,4-oxadiazol-2-yl)(4-(isoquinolin-3-yl)-6,7-dihydro-1H-imidazo[4,5-c]pyridin-5(4H)-yl)methanone]	1 to 5 µM
Fc1ccc(-c2nnc(N3CCc4[nH]cnc4[C@@H]3c3cc4ccccc4cn3)o2)cc1 [Example 336, (S)-2-(4-fluorophenyl)-5-(4-(isoquinolin-3-yl)-6,7-dihydro-1H-imidazo[4,5-c]pyridin-5(4H)-yl)-1,3,4-oxadiazole]	> 5 µM
Fc1ccc(-c2nnc(N3CCc4[nH]cnc4[C@H]3c3cc4ccccc4cn3)o2)cc1 [Example 337, (R)-2-(4-fluorophenyl)-5-(4-(isoquinolin-3-yl)-6,7-dihydro-1H-imidazo[4,5-c]pyridin-5(4H)-yl)-1,3,4-oxadiazole]	< 0.5 µM
CC(C)(F)c1ncc(C(=O)N2CCc3[nH]cnc3[C@@H]2c2cc3ccccc3cn2)o1 [Example 338, (S)-(2-(2-fluoropropan-2-yl)oxazol-5-yl)(4-(isoquinolin-3-yl)-6,7-dihydro-1H-imidazo[4,5-c]pyridin-5(4H)-yl)methanone]	> 5 µM
CC(C)(F)c1ncc(C(=O)N2CCc3[nH]cnc3[C@H]2c2cc3ccccc3cn2)o1 [Example 339, (R)-(2-(2-fluoropropan-2-yl)oxazol-5-yl)(4-(isoquinolin-3-yl)-6,7-dihydro-1H-imidazo[4,5-c]pyridin-5(4H)-yl)methanone]	< 0.5 µM
O=C(c1nnc(-c2ccc(F)cn2)o1)N1CCc2[nH]cnc2[C@H]1c1cc2ccccc2cn1 [Example 340, (R)-(5-(5-fluoropyridin-2-yl)-1,3,4-oxadiazol-2-yl)(4-(isoquinolin-3-yl)-6,7-dihydro-1H-imidazo[4,5-c]pyridin-5(4H)-yl)methanone]	< 0.5 µM
O=C(c1nnc(-c2ccc(F)cn2)o1)N1CCc2[nH]cnc2[C@@H]1c1cc2ccccc2cn1 [Example 341, (S)-(5-(5-fluoropyridin-2-yl)-1,3,4-oxadiazol-2-yl)(4-(isoquinolin-3-yl)-6,7-dihydro-1H-imidazo[4,5-c]pyridin-5(4H)-yl)methanone]	> 5 µM
O=C(c1nnc(-c2ccc(F)cc2)o1)N1CCc2[nH]cnc2[C@H]1c1cc2ccccc2cn1 [Example 342, (R)-(5-(4-fluorophenyl)-1,3,4-oxadiazol-2-yl)(4-(isoquinolin-3-yl)-6,7-dihydro-1H-imidazo[4,5-c]pyridin-5(4H)-yl)methanone]	< 0.5 µM
O=C(c1nnc(-c2ccc(F)cc2)o1)N1CCc2[nH]cnc2[C@@H]1c1cc2ccccc2cn1 [Example 343, (S)-(5-(4-fluorophenyl)-1,3,4-oxadiazol-2-yl)(4-(isoquinolin-3-yl)-6,7-dihydro-1H-imidazo[4,5-c]pyridin-5(4H)-yl)methanone]	> 5 µM
CC(C)(F)c1ccc2c(C(=O)N3CCc4[nH]cnc4[C@H]3c3cc4ccccc4cn3)cnn2c1 [Example 344, (R)-(6-(2-fluoropropan-2-yl)pyrazolo[1,5-a]pyridin-3-yl)(4-(isoquinolin-3-yl)-6,7-dihydro-1H-imidazo[4,5-c]pyridin-5(4H)-yl)methanone]	0.5 to 1 µM
